In this test the test system is patients with inadequately controlled type 2 diabetes. The protocol: The data represent findings from a randomized, double-blind, placebo-controlled study of 546 individuals with type 2 diabetes whose HbA1c was greater than or equal to 7.0 percent and less than or equal to 10 percent at baseline. […] Patients in all arms also received metformin (greater than or equal to 1500 mg/d). […] Exploratory endpoints included body weight decrease of greater than or equal to 5 percent or greater than or equal to 10 percent as well as body weight percent change from baseline.

In the case of `CCOc1ccc(Cc2cc([C@@H]3O[C@H](CO)[C@@H](O)[C@H](O)[C@H]3O)ccc2Cl)cc1` [dapagliflozin, (2S,3R,4R,5S,6R)-2-(4-chloro-3-(4-ethoxybenzyl)phenyl)-6-(hydroxymethyl)tetrahydro-2H-pyran-3,4,5-triol], the “mean reductions in body weight compared to individuals taking placebo” value (add-on to metformin, 24 weeks) is “statistically greater”. In addition, the “adjusted mean change in FPG from baseline at Week 24” value (dapagliflozin 10 mg plus metformin) is -23.5 mg/dL. Besides, under “exploratory endpoint, add-on to metformin, 24 weeks”, the “patients who achieved weight losses greater than or equal to 5 percent compared to placebo” value is given as “more patients”.

These data come from patent US9616028B2, “Bilayer tablet formulations” (AstraZeneca AB, priority 2009, dated 2017).
